Data set [1] in a line: Solid state stability on exposure to high temperatures and high relative humidity. It counts as physicochemical.
Data set [2] in a line: Solid state stability on exposure to high relative humidity. It counts as physicochemical.

Molecules are shown by their SMILES.

For `[Cl][Mn-5]1234([Cl])[n+]5c6cccc5C[NH+]1[C@H]1CCCC[C@@H]1[NH+]2CC[NH+]3[C@H]1CCCC[C@@H]1[NH+]4C6` (some centres unmarked) [Form AM2, Avasopasem manganese], in data set [1], the “stability when exposed to high temperatures and high relative humidity” value is on record as “stable”.
In the case of `[Cl][Mn-5]1234([Cl])[n+]5c6cccc5C[NH+]1[C@H]1CCCC[C@@H]1[NH+]2CC[NH+]3[C@H]1CCCC[C@@H]1[NH+]4C6` (some centres unmarked) [Form AM1, Avasopasem manganese], the “stability when exposed to high relative humidity” value in data set [2] is given as “stable”.
